From patent US20170121683A1, “ARYL HYDROCARBON RECEPTOR DISRUPTION AND ENHANCEMENT” (priority 2015, published 2017)

System: H9 hESCs
Experiment: Hemato-endothelial differentiation of H9 hESCs as spin-EBs, flow cytometry (Example 1)
Assay type: cell-based, human
Method: H9 human embryonic stem cells (H9 hESCs; University of Wisconsin, Madison, Wis.) were adapted to passage as single cells using TrypLE (Invitrogen, Carlsbad, Calif.) as previously described (Ng et al. Nat. Protoc. 3, 768-76 (2008)). H9 hESCs were maintained on irradiated mouse embryonic fibroblasts in ES cell growth medium including Dulbecco's modified Eagle's medium (DMEM)/Ham's F-12 medium (F12) (Invitrogen) supplemented with 15% Knockout Serum Replacer (Invitrogen), 1 mM L-glutamine (Invitrogen), 0.1 mM β-mercaptoethanol (Sigma Aldrich, St. Louis, Mo.), 1% minimum essential medium nonessential amino acids (Invitrogen), 4 ng/mL basic fibroblast growth factor (R&D Systems Inc., Minneapolis, Minn.), and 1% penicillin-streptomycin (Invitrogen) incubated at 37° C. in a humidified atmosphere containing 5% CO2. Single-cell adapted hESCs were subjected to hemato-endothelial differentiation as spin embryoid bodies (“spin-EBs”), also previously described (Ng et al. Nat. Protoc. 3, 768-76 (2008); Knorr et al. Stem Cells Dev. 22, 1861-9 (2013); Ferrell et al., Stem Cells 33(4), 1130-41 (2015)). In brief, TrypLE-adapted hESCs were harvested are resuspended in bovine serum albumin polyvinyl alcohol essential lipids (BPEL) media (Ferrell et al. Stem Cells 33(4):1130-41 (2015)) supplemented with 20 ng/mL bone morphogenic protein-4 (R&D Systems), 20 ng/mL vascular endothelial growth factor (R&D Systems), and 40 ng/mL stem cell factor (R&D Systems) (hemato-endothelial induction media or Stage I mesodermal induction media). Cells were plated in a low-attachment 96-well plate (Thermo Scientific, Waltham, Mass.) at 3,000 cells per well and centrifuged at 1500 rpm for 5 minutes to create three-dimensionalized embryoid body aggregates. Following 6 days of incubation, EBs were transferred with a multichannel micropipette to 0.1% gelatinized 24-well plates (8 EBs/well) with BEL media (BPEL media minus polyvinyl alcohol) supplemented with 40 ng/mL vascular endothelial growth factor, 40 ng/mL stem cell factor, 30 ng/mL Interleukin-3 (Peprotech, Rocky Hill, N.J.), 30 ng/mL Interleukin-6 (Peprotech), and 30 ng/mL thrombopoietin (Peprotech) ([…] or Stage II media) to induce hemato-endothelial-specific differentiation. Depending on the treatment group, Stage II media was also supplemented with DMSO, 1 μM StemReginin-1 (SR-1) (Cellagen Technology, San Diego, Calif.) in DMSO or 10 nM 2,3,7,8-tetrachlorodibenzo-p-dioxin (TCDD) (Sigma Aldrich) in DMSO. EBs were cultured until the indicated time points and one-half media changes with fresh Stage II media and drugs were performed every three days. For EB harvesting, the media containing the non-adherent differentiated hematopoietic cells was set aside while the adherent cells were treated with 0.05% trypsin (Invitrogen) containing 2% chicken serum (Sigma Aldrich) for 8-10 minutes in a 37° C. water bath. Both non-adherent and adherent fractions were combined for subsequent analyses.
Harvested cells were incubated with PE-Cy7 CD34 (BD Biosciences, San Jose, Calif.) in conjunction with APC CD31, APC CD41a, APC CD43, or APC CD45 for 30 minutes at 4° C. in FACS buffer (DPBS containing 2% fetal bovine serum and 0.1% sodium azide). Dead cells were excluded using Sytox Blue dye (Invitrogen) prior to analysis. Cells were analyzed using an LSRII flow cytometer (BD Biosciences) and data were analyzed using FlowJo software (TreeStart, Ashland, Oreg.).

Q: How did the “CD34+CD31+ hemato-endothelial cells” value (Day 9, 1 μM SR-1, n=3) turn out when `CC(C)n1cnc2c(NCCc3ccc(O)cc3)nc(-c3csc4ccccc34)nc21` [SR-1, StemReginin-1] was run?
A: 17.63%±1.25

Q: What about the “expansion of CD34+CD45+ hematopoietic progenitor cells relative to DMSO-treated controls” value (Day 12, 1 μM SR-1) of the same compound?
A: approximately two-fold expansion

Q: What about the “CD34+CD45+ hematopoietic progenitor cells” value (Day 12, 1 μM SR-1, n=3) of the same compound?
A: 16.35%±4.05

Q: Which “CD34+CD45+ progenitor cells” value (Day 15, 10 nM TCDD, n=3) does the source give for `Clc1cc2c(cc1Cl)Oc1cc(Cl)c(Cl)cc1O2` [TCDD, 2,3,7,8-tetrachlorodibenzo-p-dioxin] here?
A: 3.99%±0.80

Q: What about the “CD34−CD43+ differentiated hematopoietic cells” value (Day 15, 10 nM TCDD, n=3) of the same compound?
A: 84.5%±2.78

Q: And the “CD34−CD45+ differentiated hematopoietic cells” value (Day 15, 10 nM TCDD, n=3)?
A: 81.75%±1.75
